Results from patent publication US20030181436A1, “Treatment for AIDS, HIV, and other related diseases and compounds for use therewith” (priority 2001, published 2003).

What was measured:
Assay type in all cases: cell-based
[1] = system: TNFα induced U1 cells (HIV IIIB provirus); experiment: U1 latent infection assay, supernatant reverse transcriptase activity; conditions: exp 2
Experimental: (§1) U1 and ACH-2 cells were obtained from the AIDS Research and Reference Reagent Program and maintained under standard culture conditions in RPMI 1640 supplemented with 10% fetal bovine serum (heat inactivated), supplemented with 2 mM […], 100U/ml penicillin and 100 μg/ml, streptomycin. U1 cells were derived from the histocytic leukemia cell line U937, and contain a single integrated copy (HIV IIIB) […] a cytokine and/or phorbol inducible provirus. ACH-2 cells are derived from the A3.01 T lymphoblastic cell line, and contain 2 copies of the HIV IIIB provirus, however only one is cytokine and/or phorbol inducible. Cultures were maintained in such a way as to ensure exponential growth of the populations. At the time of the assay, cells were collected by centrifugation and counted by hemacytometer. If cell viability by Trypan Blue dye exclusion was less than 70% the assay was terminated. The cells were adjusted to 5×10^4 cells/mL and 100 μL, placed in 96 well plates with 100 μL media containing a final concentration of […] TNFα and the test compound. Cultures were incubated for 3 days and supernatants harvested. Compound toxicity was determined by MTS dye reduction. Virus expression was measured by supernatant reverse transcriptasc activity.
Reverse transcriptase activity was measured in cell-free supernatants. Tritiated thymidine triphosphate (NEN) (TTP) was resuspended in distilled H2O at 5 Ci/mL. Poly rA and oligo dT were prepared as a stock solution which was kept at −20° C. The RT reaction buffer was prepared fresh on a daily basis and consists of 125 μL 1.0 M EGTA, 125 μL dH2O, 110 μL 10% SDS, 50 μL 1.0 M Tris (pH 7.4), 50 μL, 1.0 M DTT, and 40 μL 1.0 M MgCl2. These three solutions were mixed together in a ratio of 2 parts TTP, 1 part poly rA:oligo dT, and 1 part reaction buffer. Ten microliters of this reaction mixture was placed in a round bottom microtiter plate and 15 μL of virus containing supernatant was added and mixed. The plate was incubated at 37° C. in a water bath with a solid support to prevent submersion of the plate and incubated for 60 minutes. Following reaction, the reaction volume was spotted onto pieces of DE81 paper, washed 5 times for 5 minutes each in a 5% sodium phosphate buffer, 2 times for 1 minute each in distilled water, 2 times for 1 minute each in 70% ethanol, and then dried. Opti-Fluor O was added to each sample and incorporated radioactivity was quantitated utilizing a Wallac 1450 Microbetaplus liquid scintillation counter.

HIV = experiment: HeLa CD4 LTR β-gal time of addition assay; conditions: single round, high M.O.I.
From the text: This time of addition assay measures reproducible events from initial virus binding to the trans activation of the β-galactosidase reporter by newly produced Tat protein. This is a single round of infection assay and is thus “cleaner” and more “precise” than a multi-round time of addition assay. […] Since it is hypothesized that the K and Z compounds work by interfering with virus transcription the later possibility seems more likely. Thus the use of a time of addition assay with PBMCs was utilized.

ACH-2 cells = experiment: ACH-2 assay, compound toxicity by MTS dye reduction; design: Y. CC / 9′. CC: unit not given here; conditions: exp 2
Experimental: At assay termination the assay plates were stained with the soluble tetrazolium-based dye MTS (CellTiter® Reagent, Promega) to determined cell viability and quantify compound toxicity. […] At termination of the assay 20 μL of MTS reagent was added per well. The wells were incubated for 4 h at 37° C., 5% CO2. Adhesive plate scalers were used in place of the lids, the sealed plate was inverted several times to mix the soluble formazan product and the plate was read spectrophotometrically at 490 nm with a 650 nm reference wavelength on a Molecular Devices Vmax plate reader.
as §1

Substance: Potassium Iodiscorbate [Compound K]
- % VC ([1]; 0.00063 μM): 112.6%
- RT ACTIVITY (cpm) MEAN ([1]; 0.00063 μM): 3019 cpm
- % VC ([1]; 0.002 μM): 118.4%
- RT ACTIVITY (cpm) MEAN ([1]; 0.002 μM): 3174 cpm
- % VC ([1]; 0.00625 μM): 111.5%
- RT ACTIVITY (cpm) MEAN ([1]; 0.00625 μM): 2989 cpm
- % VC ([1]; 0.02 μM): 98.4%
- RT ACTIVITY (cpm) MEAN ([1]; 0.02 μM): 2640 cpm
- % VC ([1]; 0.0625 μM): 107.1%
- RT ACTIVITY (cpm) MEAN ([1]; 0.0625 μM): 2872 cpm
- % VC ([1]; 0.2 μM): 110.0%
- RT ACTIVITY (cpm) MEAN ([1]; 0.2 μM): 2949 cpm
- % VC ([1]; 0.625 μM): 68.1%
- RT ACTIVITY (cpm) MEAN ([1]; 0.625 μM): 1826 cpm
- % VC ([1]; 2 μM): 81.7%
- RT ACTIVITY (cpm) MEAN ([1]; 2 μM): 2191 cpm
- % VC ([1]; 6.25 μM): 73.2%
- RT ACTIVITY (cpm) MEAN ([1]; 6.25 μM): 1962 cpm
- % VC ([1]; 20 μM): 45.3%
- RT ACTIVITY (cpm) MEAN ([1]; 20 μM): 1216 cpm
- % VC ([1]; 62.5 μM): 29.07%
- RT ACTIVITY (cpm) MEAN ([1]; 62.5 μM): 779 cpm
- % VC ([1]; 200 μM): 17.50%
- RT ACTIVITY (cpm) MEAN ([1]; 200 μM): 469 cpm
- inhibition of HIV replication (HIV): failed to inhibit
- TOXICITY VALUES (MTS) MEAN (ACH-2 cells; 0.00063 uM): 0.990 O. D.
- Y. CC (ACH-2 cells; 0.00063 uM): 78.2
- TOXICITY VALUES (MTS) MEAN (ACH-2 cells; 0.002 uM): 1.004 O. D.
- Y. CC (ACH-2 cells; 0.002 uM): 79.3
- TOXICITY VALUES (MTS) MEAN (ACH-2 cells; 0.00625 uM): 1.000 O. D.
- Y. CC (ACH-2 cells; 0.00625 uM): 78.9
- TOXICITY VALUES (MTS) MEAN (ACH-2 cells; 0.02 uM): 0.943 O. D.
- Y. CC (ACH-2 cells; 0.02 uM): 74.4
- TOXICITY VALUES (MTS) MEAN (ACH-2 cells; 0.0625 uM): 0.891 O. D.
- Y. CC (ACH-2 cells; 0.0625 uM): 70.3
- TOXICITY VALUES (MTS) MEAN (ACH-2 cells; 0.2 uM): 0.830 O. D.
- Y. CC (ACH-2 cells; 0.2 uM): 65.6
- TOXICITY VALUES (MTS) MEAN (ACH-2 cells; 0.625 uM): 0.826 O. D.
- Y. CC (ACH-2 cells; 0.625 uM): 65.2
- TOXICITY VALUES (MTS) MEAN (ACH-2 cells; 2 uM): 0.694 O. D.
- Y. CC (ACH-2 cells; 2 uM): 54.8
- TOXICITY VALUES (MTS) MEAN (ACH-2 cells; 6.25 uM): 0.208 O. D.
- Y. CC (ACH-2 cells; 6.25 uM): 16.4
- TOXICITY VALUES (MTS) MEAN (ACH-2 cells; 20 uM): 0.040 O. D.
- Y. CC (ACH-2 cells; 20 uM): 3.2
- TOXICITY VALUES (MTS) MEAN (ACH-2 cells; 62.5 uM): 0.020 O. D.
- Y. CC (ACH-2 cells; 62.5 uM): 1.6
- TOXICITY VALUES (MTS) MEAN (ACH-2 cells; 200 uM): 0.028 O. D.
- Y. CC (ACH-2 cells; 200 uM): 2.2
